# Measurements: ChEMBL document CHEMBL1201862, “PubChem BioAssay data set” (2004)
#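 Exposure lasted 48 hours, with cells grown in 96-well plates and compounds tested at five concentrations. GI50: concentration for 50% inhibition of growth.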 The source made the active and inactive calls. Rule as the data show it: active = GI50 up to about 1.1 µM and inactive = higher.
# What was measured:
# Assay in all cases: NCI-60 cell line screen, 48 h
# 786-0 = system: 786-0
# A549 = system: A549
# ACHN = system: ACHN
# BT-549 = system: BT-549
# CCRF-CEM = system: CCRF-CEM
# DU-145 = system: DU-145
# K562 = system: K562
# MDA-N = system: MDA-N
# MOLT-4 = system: MOLT-4
# Malme-3M = system: Malme-3M
# OVCAR-3 = system: OVCAR-3
# PC-3 = system: PC-3
# RPMI-8226 = system: RPMI-8226
# RXF 393 = system: RXF 393
# SF-268 = system: SF-268
# SN12C = system: SN12C
# SNB-19 = system: SNB-19
# U-251 = system: U-251
# UACC-257 = system: UACC-257
Structure (SMILES),GI50 (786-0),GI50 (A549),GI50 (ACHN),GI50 (BT-549),GI50 (CCRF-CEM),GI50 (DU-145),GI50 (K562),GI50 (MDA-N),GI50 (MOLT-4),GI50 (Malme-3M),GI50 (OVCAR-3),GI50 (PC-3),GI50 (RPMI-8226),GI50 (RXF 393),GI50 (SF-268),GI50 (SN12C),GI50 (SNB-19),GI50 (U-251),GI50 (UACC-257)
CC(C)[Si]1(C(C)C)OCC2OC(n3cnc4c(N)ncnc43)C(N)C2O[Si](C(C)C)(C(C)C)O1 (stereo unspecified),5.11 µM (inactive),5.58 µM (inactive),3.44 µM (inactive),6.41 µM (inactive),9.29 µM (inactive),11.9 µM (inactive),3.51 µM (inactive),6.32 µM (inactive),2.08 µM (inactive),17.8 µM (inactive),5.22 µM (inactive),3.16 µM (inactive),2.22 µM (inactive),8.97 µM (inactive),12 µM (inactive),10.1 µM (inactive),4.88 µM (inactive),8.32 µM (inactive),5.73 µM (inactive)
C=C1[C@H]2O[C@H]2[C@@H](OC(C)=O)[C@@]2(C)[C@@H](OC(C)=O)C[C@@H](OC(=O)CCC)[C@@](C)(O)[C@@H]2[C@@H](OC(C)=O)[C@]2(O)[C@@H](C)C(=O)O[C@H]2[C@H]1Cl,> 100 µM (inactive),> 100 µM (inactive),> 100 µM (inactive),> 100 µM (inactive),> 10 µM (inactive),> 100 µM (inactive),> 100 µM (inactive),> 100 µM (inactive),> 100 µM (inactive),> 100 µM (inactive),> 100 µM (inactive),> 100 µM (inactive),> 100 µM (inactive),38.7 µM (inactive),> 100 µM (inactive),> 100 µM (inactive),> 100 µM (inactive),> 100 µM (inactive),> 100 µM (inactive)
C#CCn1ncc2c(SC)ncnc21,> 100 µM (inactive),> 100 µM (inactive),> 100 µM (inactive),> 100 µM (inactive),> 100 µM (inactive),> 100 µM (inactive),> 100 µM (inactive),> 100 µM (inactive),> 100 µM (inactive),> 100 µM (inactive),> 100 µM (inactive),> 100 µM (inactive),> 100 µM (inactive),> 100 µM (inactive),> 100 µM (inactive),> 100 µM (inactive),> 100 µM (inactive),> 100 µM (inactive),> 100 µM (inactive)
N#CC1=C(N)OC2=C(CCCc3ccccc32)C1c1ccc([N+](=O)[O-])cc1 (stereo unspecified),18.1 µM (inactive),19 µM (inactive),17.9 µM (inactive),2.91 µM (inactive),4.52 µM (inactive),10.1 µM (inactive),2.07 µM (inactive),15.9 µM (inactive),0.336 µM (active),16.3 µM (inactive),13.5 µM (inactive),17.1 µM (inactive),1.85 µM (inactive),13.2 µM (inactive),15.1 µM (inactive),15.1 µM (inactive),17.3 µM (inactive),15.5 µM (inactive),14.8 µM (inactive)
COc1cc2c(cc1OCCCCCCCCCCN1C(=O)c3cccc4cccc(c34)C1=O)N=C[C@@H]1CCCN1C2=O,9.06 µM (inactive),12.4 µM (inactive),10 µM (inactive),6.25 µM (inactive),1.94 µM (inactive),13.2 µM (inactive),5.26 µM (inactive),7.55 µM (inactive),2.41 µM (inactive),12 µM (inactive),3.73 µM (inactive),3.13 µM (inactive),1.82 µM (inactive),3.85 µM (inactive),8.51 µM (inactive),4.42 µM (inactive),13.7 µM (inactive),3.37 µM (inactive),16.1 µM (inactive)
COc1ccc(-c2nc(N3CCCC3)no2)cc1,36.3 µM (inactive),38 µM (inactive),35.8 µM (inactive),43.3 µM (inactive),20.7 µM (inactive),43.2 µM (inactive),60.3 µM (inactive),67 µM (inactive),> 100 µM (inactive),11.6 µM (inactive),72.8 µM (inactive),41.6 µM (inactive),32.7 µM (inactive),22 µM (inactive),53 µM (inactive),74 µM (inactive),44.1 µM (inactive),86.3 µM (inactive),> 100 µM (inactive)
CC1(C)CC(=O)c2c(-c3ccc(Cl)cc3)c(C#N)c(=S)n(C3OC(CO)C(O)C(O)C3O)c2C1 (stereo unspecified),27.5 µM (inactive),36.1 µM (inactive),39 µM (inactive),45.9 µM (inactive),26.2 µM (inactive),49.8 µM (inactive),13.6 µM (inactive),19.1 µM (inactive),25 µM (inactive),31 µM (inactive),30.9 µM (inactive),17.2 µM (inactive),22.5 µM (inactive),36.2 µM (inactive),48.3 µM (inactive),31.7 µM (inactive),40.3 µM (inactive),21.7 µM (inactive),28.4 µM (inactive)
N=C(N)N/N=C/c1cnn(C(=N)N)c1,> 100 µM (inactive),> 100 µM (inactive),> 100 µM (inactive),> 100 µM (inactive),> 100 µM (inactive),> 100 µM (inactive),> 100 µM (inactive),> 100 µM (inactive),> 100 µM (inactive),> 100 µM (inactive),> 100 µM (inactive),31.4 µM (inactive),> 100 µM (inactive),> 100 µM (inactive),> 100 µM (inactive),63.7 µM (inactive),> 100 µM (inactive),91 µM (inactive),57.4 µM (inactive)
c1csc(-c2ccc(-c3cccc4nsnc34)s2)c1,39.5 µM (inactive),62.1 µM (inactive),> 100 µM (inactive),> 100 µM (inactive),20.2 µM (inactive),> 100 µM (inactive),32 µM (inactive),40.4 µM (inactive),18.7 µM (inactive),> 100 µM (inactive),> 100 µM (inactive),> 100 µM (inactive),85.3 µM (inactive),94.4 µM (inactive),> 100 µM (inactive),> 100 µM (inactive),> 100 µM (inactive),91.2 µM (inactive),> 100 µM (inactive)
Cc1ccc2c(c1)C(C1Cc3c(C)cccc3C1=O)OC2=O (stereo unspecified),> 100 µM (inactive),> 100 µM (inactive),> 100 µM (inactive),86.5 µM (inactive),> 100 µM (inactive),> 100 µM (inactive),> 100 µM (inactive),> 100 µM (inactive),> 100 µM (inactive),> 100 µM (inactive),> 100 µM (inactive),> 100 µM (inactive),63.2 µM (inactive),55.3 µM (inactive),> 100 µM (inactive),> 100 µM (inactive),> 100 µM (inactive),78 µM (inactive),> 100 µM (inactive)
Cc1cn(C2CC(N=[N+]=[N-])C(CO)O2)c(=O)n(CCCCO)c1=O (stereo unspecified),> 100 µM (inactive),> 100 µM (inactive),> 100 µM (inactive),> 100 µM (inactive),> 100 µM (inactive),> 100 µM (inactive),> 100 µM (inactive),> 100 µM (inactive),> 100 µM (inactive),> 100 µM (inactive),> 100 µM (inactive),> 100 µM (inactive),> 100 µM (inactive),> 100 µM (inactive),> 100 µM (inactive),> 100 µM (inactive),> 100 µM (inactive),> 100 µM (inactive),> 100 µM (inactive)
COC12C=CC(C=C1C#N)CC2.COC12C=CC(CC1)CC2=O (stereo unspecified),> 100 µM (inactive),> 100 µM (inactive),> 100 µM (inactive),> 100 µM (inactive),> 100 µM (inactive),> 100 µM (inactive),> 100 µM (inactive),> 100 µM (inactive),> 100 µM (inactive),> 100 µM (inactive),> 100 µM (inactive),> 100 µM (inactive),> 100 µM (inactive),> 100 µM (inactive),> 100 µM (inactive),> 100 µM (inactive),> 100 µM (inactive),> 100 µM (inactive),> 100 µM (inactive)
CC1=NN(C(=O)CC(=O)Nc2ccccc2Cl)C(=O)C1/N=N/c1ccc(C(=O)O)cc1 (stereo unspecified),> 100 µM (inactive),> 100 µM (inactive),> 100 µM (inactive),> 100 µM (inactive),> 100 µM (inactive),> 100 µM (inactive),> 100 µM (inactive),> 100 µM (inactive),> 100 µM (inactive),> 100 µM (inactive),> 100 µM (inactive),> 100 µM (inactive),> 100 µM (inactive),> 100 µM (inactive),> 100 µM (inactive),> 100 µM (inactive),> 100 µM (inactive),> 100 µM (inactive),> 100 µM (inactive)
COc1ccc(/C=C/C(=O)/C=C/c2ccc(OC)cc2OC)c(OC)c1,5.81 µM (inactive),14.4 µM (inactive),6.61 µM (inactive),4.34 µM (inactive),2.92 µM (inactive),12.4 µM (inactive),2.79 µM (inactive),2.22 µM (inactive),4.8 µM (inactive),4.19 µM (inactive),2.76 µM (inactive),12.2 µM (inactive),3.71 µM (inactive),3.24 µM (inactive),4.55 µM (inactive),18.6 µM (inactive),12.6 µM (inactive),4.67 µM (inactive),1.39 µM (inactive)
